Reference: patent publication US5391540A, “Substituted pyridine compounds” (Rohm and Haas Company, priority 1993, dated 1995)

Experiments:
Format in all cases: in vivo
Barnyardgrass = assay: Pre-emergent herbicidal activity (Table A); details: Echinochloa crus-galli, pre-emergence, Bygr, 11.2 kg/ha, 10-14 days, read-out: herbicidal rating (% inhibition)
In short: (§1)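 Seeds or perennial propagules set on compacted topsoil, then covered with soil mixed with a known amount of test compound applied in acetone or water carrier. Ratings assigned on a scale based on percent inhibition of each species.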

Cocklebur = assay: Pre-emergent herbicidal activity (Table A); details: Xanthium strumarium, pre-emergence, Cobu, 11.2 kg/ha, 10-14 days, read-out: herbicidal rating (% inhibition)
In short: as §1

Downy Brome = assay: Pre-emergent herbicidal activity (Table A); details: Bromus tectorum, pre-emergence, Dobr, 11.2 kg/ha, 10-14 days, read-out: herbicidal rating (% inhibition)
In short: as §1

Morningglory = assay: Pre-emergent herbicidal activity (Table A); details: Ipomoea, pre-emergence, Mogl, 11.2 kg/ha, 10-14 days, read-out: herbicidal rating (% inhibition)
In short: as §1

Velvetleaf = assay: Pre-emergent herbicidal activity (Table A); details: Abutilon theophrasti, pre-emergence, Vele, 11.2 kg/ha, 10-14 days, read-out: herbicidal rating (% inhibition)
In short: as §1

Yellow Nutsedge = assay: Pre-emergent herbicidal activity (Table A); details: Cyperus, pre-emergence, Yens, 11.2 kg/ha, 10-14 days, read-out: herbicidal rating (% inhibition)
In short: as §1

Bygr = assay: plant injury after spraying emerged plants (Table D); parameters: scale not given here
Description: (§2) Topsoil (silt loam) is sieved through a screen having 1.27 cm openings. […] This mixture is steam sterilized and then placed in aluminum pans 6.985 cm deep having ten holes in the bottom each 0.635 cm in diameter. The soil mixture is compacted to a depth of 1.27 cm. from the top of the pan. A predetermined number of seeds of each of several dicotyledonous and monocotyledonous annual plant species and/or vegetative propagules for the perennial plant species are placed on the soil and pressed into the soil surface. The seeds and/or vegetative propagules are covered with 1.27 cm of a mixture of 50% topsoil and 50% of a mixture of Canadian sphagnum peat moss, vermiculite and a wetting agent. The pans are then placed on a capillary mat on a greenhouse bench and subirrigated as needed.
(§3) In the following Table D the legends used to identify the plant species are the same as those used in the preceding Table B.

Cobu = assay: as above; parameters: scale not given here
Description: as §2, §3

Corn = assay: as above; parameters: scale not given here
Description: as §2, §3

Grft = assay: as above; parameters: scale not given here
Description: as §2, §3

Grso = assay: as above; parameters: scale not given here
Description: as §2, §3

Lacg = assay: as above; parameters: scale not given here
Description: as §2, §3

Mogl = assay: as above; parameters: scale not given here
Description: as §2, §3

Sobe = assay: as above; parameters: scale not given here
Description: as §2, §3

Whez = assay: as above; parameters: scale not given here
Description: as §2, §3

Dobr = assay: as above
Description: Topsoil (silt loam) is sieved through a screen having 1.27 cm openings. In some of the tests the soil was mixed with fertilizer (1225 g/cu. m of 12/5/9 containing isobutylidene diurea), while in other tests the fertilizer was omitted. This mixture is steam sterilized and then placed in aluminum pans 6.985 cm deep having ten holes in the bottom each 0.635 cm in diameter. The soil mixture is compacted to a depth of 1.27 cm. from the top of the pan. A predetermined number of seeds of each of several dicotyledonous and monocotyledonous annual plant species and/or vegetative propagules for the perennial plant species are placed on the soil and pressed into the soil surface. The seeds and/or vegetative propagules are covered with 1.27 cm of a mixture of 50% topsoil and 50% of a mixture of Canadian sphagnum peat moss, vermiculite and a wetting agent. The pans are then placed on a capillary mat on a greenhouse bench and subirrigated as needed. After the plants reach the desired stage (9 to 14 days, 1 to 3 true leaf stage), each pan (except the control pans) is removed to a spraying chamber and sprayed by means of an atomizer, operating at a spray pressure of 170.3 kPa ([…]) at the application rates noted in Table D. In the spray solution is an amount of an emulsifying agent mixture (35% butylamine salt of dodecylbenzenesulfonic acid and 65% tall oil condensed with ethylene oxide in the ratio of 11 mols of ethylene oxide/mol of tall oil) to give a spray solution or suspension. The spray solution or suspension contains a sufficient amount of the candidate chemical in order to give application rates of the active ingredient corresponding to those shown in Table D below while applying a total amount of solution or suspension equivalent to 1870 L/Ha (200 gallons/acre). The pans are returned to the greenhouse and watered as before and the injury to the plants as compared to the control pans is observed at approximately 10-14 days (usually 11 days).
as §3

COC(=O)c1c(OC)nc(C(F)(F)F)c(C2=NCCCS2)c1CC(C)C [Compound 98, 3-pyridinecarboxylic acid, 5-(5,6-dihydro-4H-1,3-thiazin-2-yl)-2-methoxy-4-(2-methylpropyl)-6-(trifluoromethyl)-, methyl ester]
0 to 24%: inhibition at 11200 g/ha (Cocklebur) | inhibition at 11200 g/ha (Yellow Nutsedge)
1: plant injury rating, Cobu (Cobu; 0.2803 kg/ha) | plant injury rating, Cobu (Cobu; 1.1210 kg/ha) | plant injury rating, Grft (Grft; 5.6050 kg/ha) | plant injury rating, Grso (Grso; 5.6050 kg/ha) | plant injury rating, Mogl (Mogl; 1.1210 kg/ha)
3: plant injury rating, Lacg (Lacg; 1.1210 kg/ha) | plant injury rating, Lacg (Lacg; 5.6050 kg/ha)
0: plant injury rating, Bygr (Bygr; 0.0701 kg/ha) | plant injury rating, Bygr (Bygr; 0.2803 kg/ha) | plant injury rating, Bygr (Bygr; 1.1210 kg/ha) | plant injury rating, Bygr (Bygr; 5.6050 kg/ha) | plant injury rating, Cobu (Cobu; 0.0701 kg/ha) | plant injury rating, Corn (Corn; 0.0701 kg/ha) | plant injury rating, Corn (Corn; 0.2803 kg/ha) | plant injury rating, Corn (Corn; 1.1210 kg/ha) | plant injury rating, Grft (Grft; 0.0701 kg/ha) | plant injury rating, Grft (Grft; 0.2803 kg/ha) | plant injury rating, Grft (Grft; 1.1210 kg/ha) | plant injury rating, Grso (Grso; 0.0701 kg/ha) | plant injury rating, Grso (Grso; 0.2803 kg/ha) | plant injury rating, Grso (Grso; 1.1210 kg/ha) | plant injury rating, Lacg (Lacg; 0.0701 kg/ha) | plant injury rating, Mogl (Mogl; 0.0701 kg/ha) | plant injury rating, Mogl (Mogl; 0.2803 kg/ha) | plant injury rating, Sobe (Sobe; 0.0701 kg/ha) | plant injury rating, Sobe (Sobe; 0.2803 kg/ha) | plant injury rating, Sobe (Sobe; 1.1210 kg/ha) | plant injury rating, Whez (Whez; 0.0701 kg/ha) | plant injury rating, Whez (Whez; 0.2803 kg/ha) | plant injury rating, Whez (Whez; 1.1210 kg/ha) | plant injury rating, Whez (Whez; 5.6050 kg/ha) | plant injury rating, Dobr (Dobr; 0.0701 kg/ha) | plant injury rating, Dobr (Dobr; 0.2803 kg/ha) | plant injury rating, Dobr (Dobr; 1.1210 kg/ha) | plant injury rating, Dobr (Dobr; 5.6050 kg/ha)
75 to 100%: inhibition at 11200 g/ha (Barnyardgrass) | inhibition at 11200 g/ha (Downy Brome) | inhibition at 11200 g/ha (Morningglory) | inhibition at 11200 g/ha (Velvetleaf)
2: plant injury rating, Cobu (Cobu; 5.6050 kg/ha) | plant injury rating, Corn (Corn; 5.6050 kg/ha) | plant injury rating, Lacg (Lacg; 0.2803 kg/ha) | plant injury rating, Mogl (Mogl; 5.6050 kg/ha) | plant injury rating, Sobe (Sobe; 5.6050 kg/ha)

COC(=O)c1c(OC)nc(C(F)(F)F)c(N=CSC)c1CC(C)C [Compound 77, 3-pyridinecarboxylic acid, 2-methoxy-4-(2-methylpropyl)-5-[[(methylthio)methylene]amino]-6-(trifluoromethyl)-, methyl ester]
1: plant injury rating, Cobu (Cobu; 2.8025 kg/ha) | plant injury rating, Grft (Grft; 2.8025 kg/ha) | plant injury rating, Grso (Grso; 2.8025 kg/ha) | plant injury rating, Grso (Grso; 11.2100 kg/ha) | plant injury rating, Mogl (Mogl; 1.1210 kg/ha) | plant injury rating, Sobe (Sobe; 1.1210 kg/ha) | plant injury rating, Sobe (Sobe; 2.8025 kg/ha)
75 to 100%: inhibition at 11200 g/ha (Barnyardgrass) | inhibition at 11200 g/ha (Downy Brome) | inhibition at 11200 g/ha (Morningglory) | inhibition at 11200 g/ha (Velvetleaf) | inhibition at 11200 g/ha (Yellow Nutsedge)
0: plant injury rating, Bygr (Bygr; 1.1210 kg/ha) | plant injury rating, Grft (Grft; 1.1210 kg/ha) | plant injury rating, Whez (Whez; 1.1210 kg/ha) | plant injury rating, Whez (Whez; 2.8025 kg/ha) | plant injury rating, Whez (Whez; 5.6050 kg/ha) | plant injury rating, Dobr (Dobr; 1.1210 kg/ha) | plant injury rating, Dobr (Dobr; 2.8025 kg/ha) | plant injury rating, Dobr (Dobr; 11.2100 kg/ha)
2: plant injury rating, Bygr (Bygr; 5.6050 kg/ha) | plant injury rating, Corn (Corn; 2.8025 kg/ha) | plant injury rating, Corn (Corn; 5.6050 kg/ha) | plant injury rating, Lacg (Lacg; 1.1210 kg/ha) | plant injury rating, Mogl (Mogl; 2.8025 kg/ha) | plant injury rating, Mogl (Mogl; 5.6050 kg/ha)
50 to 74%: inhibition at 11200 g/ha (Cocklebur)
3: plant injury rating, Bygr (Bygr; 11.2100 kg/ha) | plant injury rating, Cobu (Cobu; 11.2100 kg/ha) | plant injury rating, Corn (Corn; 11.2100 kg/ha) | plant injury rating, Lacg (Lacg; 2.8025 kg/ha) | plant injury rating, Lacg (Lacg; 5.6050 kg/ha) | plant injury rating, Lacg (Lacg; 11.2100 kg/ha) | plant injury rating, Mogl (Mogl; 11.2100 kg/ha)
